Values quoted from earlier work in patent US5883123A, “Butyrate prodrugs derived from lactic acid” (Vertex Pharmaceuticals, Inc., priority 1995, dated 1999).

How the values were obtained:
[1] = system: tumor; details: mice
[2] = system: Cultured Erythroleukemic Cells; details: in vitro
[3] = system: leukemia patients

Compound: CCCC(=O)O [arginine butyrate]
- anti-tumor and anti-leukemia effects [1]: anti-tumor and anti-leukemia effects in mice

Compound: CCCC(=O)O [butyric acid]
- cell differentiation [2]: induces cell differentiation in vitro
- effects in leukemia patients, by inducing cell differentiation [3]: promising effects in leukemia patients
